In patent US20110223132A1, “ISOTHIAZOLOQUINOLONES AND RELATED COMPOUNDS AS ANTI-INFECTIVE AGENTS” (priority 2003, published 2011):
In brackets after ≈: the same amount, converted by molar mass.

Tests used:
E. coli ATCC 25922 = test: Minimum inhibitory concentration (MIC) assay, broth microdilution; format: cell-based; settings: Escherichia coli, ATCC25922; E. coli ATCC 25922, Mueller-Hinton II broth, 37° C., 18 to 24 hours
Experimental: (§1) The antimicrobial activity of the compounds of the invention may be evaluated by a number of methods, including the following visual minimum inhibitory concentration (MIC) assay. This assay determines the minimum concentration of compound required to inhibit growth of a bacterial strain. Whole-cell antibacterial activity is determined by broth microdilution using conditions recommended by the NCCLS (see National Committee for Clinical Laboratory Standards. 2001. Performance standards for antimicrobial susceptibility testing: 11th informational supplement. Vol. 21, no. 1, M100-S11. National Committee for Clinical Laboratory Standards, Wayne, Pa.). Test compounds are dissolved in DMSO and diluted 1:50 in Mueller-Hinton II broth (Becton-Dickinson) to produce a 256 μg/ml stock solution. In a 96-well microtiter plate, the compound solution is serially two-fold diluted in Mueller-Hinton II broth. After the compounds are diluted, a […] aliquot of the test organism (˜1×10^6 cfu/mL) is added to each well of the microtiter plate. The final test concentrations range from 0.125-128 μg/mL Inoculated plates are incubated in ambient air at 37° C. for 18 to 24 hours. The organisms selected for testing included laboratory strains S. aureus ATCC 29213 and E. coli ATCC 25922 (strains purchased from American Type Culture Collection, Manassas, Va.). The minimum inhibitory concentration (MIC) was determined as the lowest concentration of compound that inhibited visible growth of the test organism.

S. aureus ATCC 29213 = test: as above; format: cell-based; settings: Staphylococcus aureus, ATCC29213; S. aureus ATCC 29213, Mueller-Hinton II broth, 37° C., 18 to 24 hours
Experimental: as §1

[1] = Compound cytotoxicity, cell viability staining with Alamar Blue; format: cell-based; settings: Chinese hamster, CHO cells (Chinese hamster ovary), positive control
Experimental: (§2) Optimal cell density is first determined by plating cells in a 96-well plate standard sterile tissue culture plates in 100 μl media, 10% FBS at six cell densities from 500 cells/well to 15,000 cells/well. A cell free well containing only media is used as a control. Cells are incubated at 37° C. in a 5% CO2 incubator for 24 hours. 10% culture volume (10 ul) of Alamar Blue (Biosource, DAL1100, 100 mL) is then added. Cells are incubated at 37° C. in a 5% CO2 incubator and read in a Victor V plate reader, 544 nm excitation, 590 nm emission, at 3, 4, and 24 hours after the addition of Alamar Blue. The cell number vs. change in fluorescence is plotted to determine linearity of signal vs. cell number. The optimal density varies between 500-15,000 cells/well depending on the specific cell type. The optimal density is selected based on the highest number of cells that is still in the linear response range. Cells are plated at optimal cell density in a standard sterile tissue culture 96 well plate, and incubated at 37° C., O/N in a 5% CO2 incubator. 12 to 48 hours post-plating media is removed. […] Plates are incubated 4 hours at 37° C. in a 5% CO2 incubator and read in a Victor V plate reader, 544 nm excitation, 590 nm emission. […] The change in fluorescence vs. concentration of test compound is plotted to determine the cytotoxicity of the compound.

[2] = as above; format: cell-based; settings: human, Hep 2 cells (laryngeal carcinoma), positive control
Experimental: as §2

| SMILES | MIC (E. coli ATCC 25922) | MIC (S. aureus ATCC 29213) | further results |
| --- | --- | --- | --- |
| CC(C)(C)c1ccc(C(O)CCCN2CCC(C(O)(c3ccccc3)c3ccccc3)CC2)cc1 (stereo not drawn) [Terfenadine] |  |  | CC50 [1]: 4.3 to 6.5 µM; CC50 [2]: 3 to 5 µM |
| NC1CCc2cc(-c3cc4c(cc3F)c(=O)c3c(=O)[nH]sc3n4C3CC3)ccc2C1 (racemic) [Compound 31, (Rac)-7-(6-Amino-5,6,7,8-Tetrahydronaphthalen-2-Yl)-9-Cyclopropyl-6-Fluoro-9H-Isothiazolo[5,4-B]Quinoline-3,4-Dione] |  |  | melting point: > 257 °C (dec.) |
| O=c1[nH]sc2c1c(=O)c1cc(F)c(C3=CCNCC3)cc1n2C1CC1 |  |  | melting point: > 241 °C (dec.) |

More lines, main results first:

| MIC (E. coli ATCC 25922) | MIC (S. aureus ATCC 29213) | SMILES | further results |
| --- | --- | --- | --- |
| 1 µg/mL (≈ 2.52 µM) | 0.125 µg/mL (≈ 0.315 µM) | O=C(O)c1cccc(-c2cc3c(cc2F)c(=O)c2c(=O)[nH]sc2n3C2CC2)c1 [Compound 34, 3-(9-Cyclopropyl-6-fluoro-3,4-dioxo-2,3,4,9-tetrahydro-isothiazolo[5,4-b]quinolin-7-yl)-benzoic acid] |  |
| 0.06 µg/mL (≈ 0.17 µM) | 0.007 µg/mL (≈ 0.0199 µM) | O=c1[nH]sc2c1c(=O)c1cc(F)c(-c3ccccc3)cc1n2C1CC1 [Compound 32, 9-Cyclopropyl-6-fluoro-7-phenyl-9H-isothiazolo[5,4-b]quinoline-3,4-dione] |  |
| 0.003 µg/mL (≈ 0.00849 µM) | 0.007 µg/mL (≈ 0.0198 µM) | O=c1[nH]sc2c1c(=O)c1cc(F)c(-c3cccnc3)cc1n2C1CC1 [Compound 33, 9-Cyclopropyl-6-fluoro-7-pyridin-3-yl-9H-isothiazolo [5,4-b]quinoline-3,4-dione] |  |
| 1 µg/mL (≈ 2.52 µM) | 0.03 µg/mL (≈ 0.0757 µM) | CCOc1cccc(-c2cc3c(cc2F)c(=O)c2c(=O)[nH]sc2n3C2CC2)c1 [Compound 35, 9-Cyclopropyl-7-(3-ethoxy-phenyl)-6-fluoro-9H-isothiazolo[5,4-b]quinoline-3,4-dione] |  |
